Holding throughout (experiment): inhibition of tumour cell growth, NCI panel, 48 h
Test [1] concerns DLD-1 colon.
Test [2] relates to KM20L2 colon.
Test [3] has as its system M19-MEL melanoma.
The subject of test [4] is SNB-78 CNS.
Test [5] has as its system BT-549 breast.
For test [6], the system named is HS 578T breast.
In test [7] the test system is MCF7 breast.
Test [8] relates to MDA-MB-435.
In test [9] the test system is NCI/ADR-RES ovarian.
Test [10] relates to T-47D breast.

Molecules are shown by their SMILES. Several values for one entry are separate records, joined by “and”; a condition that tells them apart may be missing. Equal values may be shown once.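 All cell lines were grown in 96-well plates and treated with compound for 48 hours. Here, GI50 denotes the concentration required for 50% inhibition of growth. The concentration for full growth arrest is given as TGI.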

Regarding `O=C(CO[N+](=O)[O-])OCC(=O)c1ccccc1`, the TGI in test [1], in test [2] and in test [3] was above 100 µM each time.
Regarding `CN1C/C(=C\c2ccco2)c2nc(N)nc(-c3ccco3)c2C1`, the TGI in test [1], in [2] and in [3] was above 100 µM each time.
`CC1=C2[C@@H](c3ccccc3)C3C=CC2(C=C3C(F)(F)F)N(C(=O)NC2CCCCC2)C1=O` (some centres not stated): the TGI in test [1], in [2], in test [3] and in test [4] was above 100 µM throughout.
Regarding `NC1=NN(c2ccccc2)C(=O)C1/C(=N\NC(=O)c1cc2ccccc2cc1O)C(=O)Nc1ccc(Cl)cc1` (configuration not stated), the TGI in test [1] was above 100 µM; in test [2], above 100 µM; in test [3] it was 89.6 µM; in test [4], above 100 µM.
Turning to `NC(=O)NC(=O)C1CCC(=O)N1S(=O)(=O)c1ccc(Cl)cc1` (configuration not stated), the TGI in test [1], in test [2] and in [3] was above 100 µM each time.
On to `O=c1cccccc1[O-].O=c1cccccc1[O-].O=c1cccccc1[O-].[Dy+3]`, for which the GI50 in [1] was 16.9 µM; in test [2] it was 18.4 µM; in test [4] it was 15.3 µM. Besides, the TGI in [1], in test [2] and in test [4] was above 100 µM each time.
Turning to `CN(C)c1ccc(/C=C2\Cc3ccccc3C2=O)cc1Br`, the TGI in test [1], in test [2], in test [3] and in [4] was above 100 µM each time.
As for `Cc1c2cc[n+](C)cc2c(C)c2c1[nH]c1ccc(Oc3ccccc3)cc12`, the TGI in test [1] was above 100 µM; in test [2], 23 µM and > 52.3 µM; in test [3], 24.5 µM and > 100 µM; in [4] it was 3.47 µM. Further, the GI50 in test [3] was 2.56 µM and 3.23 µM; in test [4], 0.809 µM and 0.266 µM.
Take `Nc1ccc2ncc(Nc3ccc(Cl)c(Cl)c3)nc2c1`: the TGI in test [1] is above 100 µM; in test [2], above 100 µM; in [3] it was 47.4 µM; in test [4], 74.1 µM.
In the case of `O=C(/C=C/c1ccc(OCC(=O)N2CCN(c3ccccc3)CC2)cc1)c1ccccc1`, the TGI in [1] is above 100 µM; in test [2], above 66 µM; in test [3], above 100 µM; in test [4] it was above 100 µM.
Turning to `COc1cccc(OC)c1/C=N\N1C(=O)c2ccccc2C1=O`, the TGI is above 100 µM in test [1], 37.4 µM in test [2], above 100 µM in test [3] and above 100 µM in test [4].
With `O=[N+]([O-])C1(CO)COC(CCc2ccccc2)OC1` (configuration not stated), the TGI in [1], in [2] and in [3] was above 100 µM throughout.
For the molecule `Cc1c(C(=O)C/C(=N/NC(=O)CC#N)C(N)=O)[n+](=O)c2ccccc2n1[O-]`, the TGI in test [1] is above 100 µM; in test [2], above 100 µM; in [3], 50.7 µM; in test [4] it was above 100 µM.
Regarding `CCOC(=O)C1C(=O)C(=O)N2CCc3c([nH]c4ccccc34)C12` (configuration not stated), the TGI in test [1], in test [2] and in [3] was above 100 µM each time.
Regarding `O=C(Nc1ccccc1)Oc1ccccc1C1CCCCC1`, the values for the TGI in test [1], in test [3] and in [4] were above 100 µM, 37.5 µM and 54.9 µM, respectively.
The matching figures for `O=C1COc2cc3c(cc2N1)SCC(=O)N3`: above 100 µM, above 100 µM and above 100 µM.
On to `CCOC(=O)/C(=C/c1ccc[nH]1)P(=O)(OCC)OCC`, for which the TGI in [1], in test [2], in test [3] and in test [4] was above 100 µM throughout.
On to `Cc1cc2c(=O)cc(-c3ccncc3)oc2c(C(=O)O)c1C`, for which the TGI in test [2], in test [3] and in test [4] was above 100 µM throughout.
Regarding `CCCNc1ncnc2c1cnn2C`, the TGI in test [2], in [3] and in test [4] was above 100 µM throughout.
Regarding `CC1=CC(=O)N2[C@H](OC[C@@H]2C(C)C)O1`, the TGI in [1], in [2] and in test [3] was above 100 µM throughout.
Regarding `Cn1nc(-c2ccccc2)c(C(=O)/C=C/c2ccccc2)c(N2CCCC2)c1=O`, the TGI in [1] is 34.2 µM; in [2], 33.4 µM; in [3] it was 37.3 µM.
Regarding `COc1cccc2c(Nc3ccc(C(=O)NCCN4CCNCC4)cc3)cc(-c3ccccc3)nc12`, the GI50 was 35.1 µM in [5]; 46.9 µM in [6]; 23.7 µM in test [7]; 35.9 µM in test [8]; above 100 µM in [9]; 29.4 µM in test [10]. Further, the TGI in [5], in [6], in test [7], in test [8], in test [9] and in [10] was above 100 µM each time.
For `O=C(/C=C/N1CCN(c2cccc(Cl)c2)CC1)c1ccc(Cl)cc1`, the GI50 is 19.3 µM in test [5]; 26.9 µM in test [6]; 29.7 µM in [7]; 19.3 µM in test [8]; 33.2 µM in [9]; 51.2 µM in test [10]. Moreover, the TGI in test [5] was 50.2 µM; in test [6], 69.6 µM; in test [7] it was above 100 µM; in [8], 50.2 µM; in test [9], above 100 µM; in [10], above 100 µM.
`CC1CC2C(=O)N(c3ccccc3)C(=O)C2c2[nH]c3ccccc3c21` (configuration not stated): the TGI in [1], in test [3] and in [4] was above 100 µM throughout.
For the molecule `CCOC(=O)c1c(/C=N\Nc2ccccc2)nc2ccccc2c1-c1ccccc1`, the TGI in [2] is above 100 µM; in test [3], 60.7 µM; in test [4], above 100 µM.
As to `COC(=O)/C(=C/c1ccc(OC)cc1)c1cc(OC)c(OC)c(OC)c1`, the TGI in test [5] was above 100 µM; in test [1], above 100 µM; in test [6], 5.69 µM; in test [3], above 100 µM; in [7], above 100 µM; in test [8], 0.477 µM. The TGI in [9], in test [4] and in [10] was above 100 µM throughout.
For `Oc1ccc(/C=N/Nc2nnc(N/N=C/c3ccc(O)cc3O)c3ccccc23)c(O)c1`, the GI50 in test [5] is 0.399 µM; in test [6] it was 0.5 µM; in test [7] it was 0.576 µM; in [8], 0.587 µM; in test [10], 0.384 µM. In addition, the TGI was 0.581 µM and 1.94 µM in test [5]; 0.954 µM in test [6]; 0.848 µM and 2.29 µM in test [7]; 3.67 µM in test [8]; 12.5 µM in test [9]; 0.633 µM and 1.64 µM in test [10].
Take `COc1ccc(S(=O)(=O)NCCCNc2nccc(-c3c(-c4ccc(F)cc4)nc4sccn34)n2)cc1`: the GI50 was 5.42 µM in test [5]; 3.58 µM in [6]; 2.74 µM in test [7]; 3.28 µM in test [8]; 5.23 µM in test [9]; 3.24 µM in test [10]. Also, the TGI is 59.4 µM in test [5]; above 100 µM in test [6]; above 100 µM in [7]; above 100 µM in test [8]; above 100 µM in test [9]; 71.3 µM in test [10].
As to `CC(=O)OCC1OC(OC(C)=O)C(NC#N)C(OC(C)=O)C1OC(C)=O` (configuration not stated), the TGI in test [1] and in test [3] was above 100 µM in each case.
As to `NC1CC(n2ccc(=O)[nH]c2=O)OC1C(O)CO` (configuration not stated), the TGI in [1], in [2] and in test [3] was above 100 µM each time.
`OCCn1c(-c2ccncc2)c(-c2ccc(F)cc2)c2ncccc21`: the GI50 in test [5], in [6], in test [7], in test [8], in test [9] and in test [10] was above 25 µM throughout. For the same molecule, the TGI in test [5], in test [6], in test [7], in [8], in test [9] and in test [10] was above 25 µM each time.
In the case of `CC(C)C12CCC3(CCC4C(C)(C(=O)O)CCCC4(C)C3C1)C(CN)C2` (configuration not stated), the TGI in test [5] is 95.5 µM; in test [6], above 100 µM; in [7], above 100 µM; in test [8], above 100 µM; in test [9] it was above 100 µM; in test [10] it was above 100 µM.
As to `CC(C)=NO.CC(C)=NO.CC(C)=NO.CC(C)=NO.[Ti]`, the GI50 in test [1], in test [3] and in test [4] was above 100 µM in each case. Moreover, the TGI in test [1], in [3] and in test [4] was above 100 µM throughout.
Take `CCOC(=O)Oc1ccc2[nH]c3c(C)cc(N)c(C)c3c2c1`: the TGI in test [1], in [3] and in [4] was above 100 µM each time.
As to `O=C1NC2(CCCCC2)C2=C1CCCCC2`, the TGI in test [1], in [3] and in [4] was above 100 µM in each case.
Take `CC(=O)Nc1ccc(C(=O)COc2cccc(/C=C3\CCc4ccccc4C3=O)c2)cc1`: the GI50 in test [5] is 17.6 µM; in test [6] it was 32.6 µM; in [7], 2.9 µM; in test [8] it was 5.58 µM; in test [9], 10.5 µM; in test [10] it was 11 µM. Also, the TGI is 54.2 µM in [5]; above 100 µM in test [6]; 19 µM in test [7]; 30 µM in test [8]; 65.9 µM in test [9]; 57.2 µM in test [10].
Consider `COc1ccc(Cl)cc1Nc1nc(C(F)(F)F)ccc1C(=O)N/N=C/c1ccc(Cl)cc1`, for which the GI50 in test [5] was 0.108 µM; in test [6], 22.3 µM; in test [7], 1.05 µM; in test [8], above 100 µM; in test [9], 6.35 µM; in test [10], 0.971 µM. For the same molecule, the TGI in test [5] is 0.932 µM; in test [6], above 100 µM; in test [7], above 100 µM; in test [8], above 100 µM; in test [9], above 100 µM; in [10] it was above 100 µM.
On to `O=C(c1ccccc1)c1ccc(N2C(=O)C3C4c5ccccc5C(/C=C/C(=O)c5ccccn5)(c5ccccc54)C3C2=O)cc1` (configuration not stated), for which the GI50 was 2.62 µM in [5]; 2.98 µM in test [6]; 1.77 µM in test [7]; 2.9 µM in test [8]; 2.68 µM in test [9]; 2.75 µM in [10]. In addition, the TGI in [5] is 9.88 µM; in test [6], above 100 µM; in test [7], above 100 µM; in [8], 9.22 µM; in test [9] it was 12.8 µM; in test [10] it was above 100 µM.
Consider `O=[N+]([O-])c1cccc(C2=NOC3CCCC23)c1` (configuration not stated), for which the TGI in [1], in [3] and in [4] was above 100 µM each time.
Take `CN1OC(CO)CC12C1CC3CC(C1)CC2C3` (configuration not stated): the TGI in test [1], in test [2] and in test [3] was above 100 µM throughout.
As for `Nc1ccc(N)c2c1C(=O)c1cccc([N+](=O)[O-])c1C2=O`, the GI50 was 2.54 µM in [5]; 2.47 µM in test [6]; 0.32 µM in test [7]; 6.3 µM in test [8]; 4.52 µM in test [9]; 6.99 µM in [10]. Besides, the TGI is above 31.2 µM in test [5]; 26.2 µM in test [6]; 18 µM in [7]; above 100 µM in test [8]; above 100 µM in [9]; above 100 µM in test [10].
Consider `COC(=O)CCSC(=O)Nc1ccccc1Cl`, for which the TGI in [1], in test [2] and in test [4] was above 100 µM throughout.
In the case of `CC(C)c1nc(Cl)c(Cl)c(Cl)n1`, the TGI in test [5] stood at 27.1 µM; in test [6] it was 14 µM; in test [7], 14.2 µM; in [8], 17.2 µM; in test [9], 55.8 µM; in test [10], 42.7 µM.

Values taken from PubChem BioAssay (NCI).
